# Data from a melting point compilation (Tetko et al.; mined from patent text by program, amines drawn as free bases though some values may be those of a salt).
row,Structure (SMILES),melting point
1,COc1ccc(S(=O)(=O)Cl)c2c3ccccc3n(C=O)c12,201 to 203 °C
2,CNC(=O)c1ccccc1-c1cc(-c2ccccc2)no1,119 to 121 °C
3,COc1cc2nc(N3CCN(c4ccnc(N(C)C5CCCC5)n4)CC3)nc(N)c2cc1OC,333 to 334 °C
4,Cc1nc(NC(=O)c2cc(F)cc(F)c2)sc1C(=O)NCc1ccccc1,84 to 86 °C
5,CSc1ccc(/C=C2/C(C)=C(C(C)N(O)C(N)=O)c3cc(F)ccc32)cc1 (stereo not drawn),150 to 152 °C
6,COc1cnc(CSc2nc3cc4c(cc3[nH]2)OCO4)cc1OC,198 to 200 °C
7,Clc1ccc(C2=C[C@H](CN3CC=C(c4ccccc4)CC3)CCC2)cc1,138 to 141 °C
8,CCCNC(=O)CCCCCn1cnc2c(N)nc3ccccc3c21,128 to 130 °C
9,CC(=O)NC1CCc2c(C(=O)O)[nH]c(C(=O)O)c2C1 (stereo not drawn),233 to 235 °C
10,CCOC(=O)c1cc(CC)sc1Nc1cc(C)ccc1[N+](=O)[O-],55 to 57 °C
11,CSC(=N[N+](=O)[O-])N(Cc1cnc(Cl)s1)C(C)=O,77 to 78 °C
12,O=C1Nc2ccc(-c3cccc(Cl)c3)cc2C(C2CC2)(C2CC2)O1,198 to 200 °C
13,CCC(C)=NOC(=NC1CCCCC1)N(C(=O)c1ccccc1)C1CCCCC1,74 to 78 °C
14,COc1ccc(C(C#N)SC2CCCCC2)cc1OC (stereo not drawn),80 to 82 °C
15,Cc1cc(C)c(C2CN(c3cc4[nH]cc(C(=O)O)c(=O)c4cc3F)CCN2)o1 (stereo not drawn),230 to 232 °C
16,COc1cc(NC(=O)C(C#N)=CNc2ccc(OC)c(I)c2)c(Cl)cc1Cl,289 to 290 °C
17,Cc1cccc(N(C)C(=O)NC2N=C(c3ccccc3F)c3ccccc3N(CC(=O)N3CC4CCC(CC4)C3)C2=O)c1 (racemic),207 to 212 °C
18,CCCCCCCCC(=O)NCc1ccc(Oc2ccccc2[N+](=O)[O-])c(OC)c1,93 to 93.5 °C
19,CCCNC(=O)N1Cc2cccn2-c2ccsc2C1=O,120 °C
20,Cc1ccc(S(=O)(=O)N(C)c2ccc(Cl)nn2)cc1,80 to 81 °C
21,CC(=O)Nc1cc(I)ccc1Sc1ccc([N+](=O)[O-])cc1[N+](=O)[O-],224 to 226 °C
22,CCOC(=O)CCC(=O)Nc1n[nH]c2cc(C(F)(F)F)ccc12,248 °C
23,CCOCCCOc1ccc(-c2ccc3c(c2)C=C(C(=O)Nc2ccc(CN(C)C4CCOCC4)cc2)CCS3(=O)=O)cc1,214 to 215 °C
24,Cc1ccccc1-c1cn(C)cc(-c2ccc(Cl)c(Cl)c2)c1=O,103 to 106 °C

row,Structure (SMILES),melting point
1,COC(=O)c1ccc2sc(C)c(Br)c2c1,84 to 85 °C
2,O=C1COc2cc(F)c(NC(=O)c3ccccc3[N+](=O)[O-])cc2N1,> 248 °C
3,O=C(N[C@H]1CC[C@H](CCN2CCC(c3cccc4c3CCO4)CC2)CC1)c1ccc2c(c1)OCO2,233 °C
4,Cc1ccc2c(n1)CC(c1ccccc1C)CC2=O (stereo not drawn),76 to 77 °C
5,CC1(CN(c2ccc(Cl)cc2)S(C)(=O)=O)SCCS1,114 to 117 °C
6,COC(=O)c1ccc(COc2ccc3cc(-c4csc(-c5ccccc5)n4)ccc3c2Br)cc1,173 to 175 °C
7,O=C(c1c(F)cccc1F)N1COCN(c2ccc(S(=O)C(F)(C(F)(F)F)C(F)(F)F)cc2F)C1=O (stereo not drawn),40 to 45 °C
8,CCc1c(-c2ccc(OCc3ccccc3)cc2)cn2cccc(CO)c12,144 to 145 °C
9,CNC(=O)NC(=O)C(CC1CCCC1OC1CCCCO1)c1ccc(Cl)c(Cl)c1 (stereo not drawn),68 to 70 °C
10,CN1C=CCC(C(=O)NCCc2ccc(OC(=O)C(C)(C)C)c(OC(=O)C(C)(C)C)c2)=C1,45 to 48 °C
11,CC(C)(O)c1ccc(CNC(=O)c2cccnc2Oc2ccc(F)cc2F)cc1,92 to 94 °C
12,CCN(CC)c1ccc(NC(=O)c2ccc(C)c(Nc3nccc(-c4cccnc4)n3)c2)cc1C(F)(F)F,128 to 131 °C
13,CC(C(=O)Nc1ccc2c(c1)OCO2)N1CCN(c2ccccn2)CC1 (stereo not drawn),189 to 191 °C
14,CCNC=C(C(=O)C=Cc1ccc(N(C)C)c(C)c1)C(=O)OC,98 to 100 °C
15,COc1ccc(C2=NN=C(C)C(C)c3cc(OC)c(OC)cc32)cc1OC (stereo not drawn),201 to 203 °C
16,CC[C@H](C)[C@H](NC(=O)[C@H](Cc1ccccc1)NC(=O)OCc1ccccc1)C(=O)OC,94.5 to 95.5 °C
17,CCCCCCCCCCCCCCCCCCS(=O)(=O)N[C@H]1CCCNC(=O)C1,99 to 100 °C
18,CC(=O)SCCC(=O)N1c2cc(C)ccc2CCC1C(=O)O (stereo not drawn),119 to 122 °C
19,CC(C)NC(=S)Nc1cccc(-c2ccnc3c(C(=O)c4cccs4)cnn23)c1,208 to 210 °C
20,Cc1cc(C)cc(C(=O)c2c(C(C)C)c(=O)[nH]c(=O)n2Cc2cc(F)nc(F)c2)c1,185 to 187 °C
21,CCOC(=O)C=C1c2ccccc2C=C(OC)c2sccc21,91 to 93 °C
22,CCn1cc(C2(c3cccc(Br)c3)N=C(N)N(C)C2=O)cc1C=O (stereo not drawn),194 to 195 °C
23,COC(=O)NCc1cccc(Br)c1,41 to 44 °C
24,CN(Cc1sc2c(=O)c(C(=O)NCc3ccc(Cl)cc3)cn(C)c2c1COCC[Si](C)(C)C)CC(O)c1cnccn1 (stereo not drawn),155 to 156 °C
